As a reminder, the Ki is a measure of affinity in units of concentration, obtained from inhibition or displacement.

Bounds are passed on as bounds.

In this assay the target is Non-receptor tyrosine-protein kinase TYK2 (Homo sapiens, UniProt P29597). In words: Tyk2 & JAK2 Caliper Assay: The caliper machine employs an off chip mobility shift assay to detect phosphorylated peptide substrates from kinase assays, using microfluidics technology. The assays are carried out at ATP concentration equivalent to the ATP Km, and at 1 mM ATP. Compounds are serially diluted in DMSO then further diluted in assay buffer (25 mM HEPES, pH 7.5, 0.01% Brij-35, 0.01% Triton, 0.5 mM EGTA). 5 ul of diluted compound was added into wells first, then 10 ul of enzyme mix was added into wells, followed by 10 uL of substrate mix (peptide and ATP in 10 mM MgCl2) to start reaction. Reaction was incubated at 28° C. for 25 min and then added 25 ul stop buffer (100 mM HEPES, 0.015% Brij-35, 50 mM EDTA), followed by reading with Caliper. JAK2 at 1 nM final concentration and TYK2 at 9.75 nM are from Carna, and substrates used are ATP at 20 and 16 uM, respectively. JAK2 assay uses peptide 22 and TYK2 uses peptide 30 (Caliper), each at 3 uM.
Chain of Non-receptor tyrosine-protein kinase TYK2 (P29597 whole entry): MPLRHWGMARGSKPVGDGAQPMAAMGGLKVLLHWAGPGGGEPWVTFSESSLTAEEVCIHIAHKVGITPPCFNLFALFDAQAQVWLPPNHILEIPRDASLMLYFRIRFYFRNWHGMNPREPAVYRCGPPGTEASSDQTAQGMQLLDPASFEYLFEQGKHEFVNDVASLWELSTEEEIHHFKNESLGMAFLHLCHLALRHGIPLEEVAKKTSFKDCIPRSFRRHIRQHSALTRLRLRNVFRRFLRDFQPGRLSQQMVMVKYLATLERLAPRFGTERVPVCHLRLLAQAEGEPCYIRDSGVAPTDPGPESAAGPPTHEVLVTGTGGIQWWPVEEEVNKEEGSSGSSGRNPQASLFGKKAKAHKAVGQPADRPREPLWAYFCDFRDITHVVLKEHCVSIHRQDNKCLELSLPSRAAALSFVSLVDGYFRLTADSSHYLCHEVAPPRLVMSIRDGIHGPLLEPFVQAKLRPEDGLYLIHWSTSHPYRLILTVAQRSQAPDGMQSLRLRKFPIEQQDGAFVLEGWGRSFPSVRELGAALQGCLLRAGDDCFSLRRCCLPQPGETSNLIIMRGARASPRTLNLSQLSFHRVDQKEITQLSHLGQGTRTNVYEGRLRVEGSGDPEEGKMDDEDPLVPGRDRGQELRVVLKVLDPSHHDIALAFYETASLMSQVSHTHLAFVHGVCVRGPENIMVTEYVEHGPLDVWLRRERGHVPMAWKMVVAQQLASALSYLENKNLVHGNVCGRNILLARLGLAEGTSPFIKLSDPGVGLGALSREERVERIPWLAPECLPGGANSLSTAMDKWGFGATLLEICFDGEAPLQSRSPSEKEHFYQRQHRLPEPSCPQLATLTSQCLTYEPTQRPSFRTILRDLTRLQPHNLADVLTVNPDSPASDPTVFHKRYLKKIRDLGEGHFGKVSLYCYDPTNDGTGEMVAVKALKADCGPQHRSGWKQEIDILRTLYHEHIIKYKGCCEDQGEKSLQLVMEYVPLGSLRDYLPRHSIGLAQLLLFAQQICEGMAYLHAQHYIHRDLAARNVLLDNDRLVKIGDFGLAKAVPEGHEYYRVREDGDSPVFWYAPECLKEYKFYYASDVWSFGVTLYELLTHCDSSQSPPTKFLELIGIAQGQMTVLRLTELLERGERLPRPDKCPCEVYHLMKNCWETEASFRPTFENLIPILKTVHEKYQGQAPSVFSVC
Consider `O=C1NCc2nc(-c3c(F)cccc3F)cc(Nc3ccc(C(=O)N4CCOCC4)cn3)c21`, for which the inhibition constant (Ki) was less than 0.01 µM.

Turning to `CCNC(=O)c1ccc(Nc2cc(-c3c(F)cccc3C#N)nc3c2C(=O)NC3)nc1`, the Ki was less than 0.01 µM.

With `O=C1NCc2nc(-c3c(F)cccc3F)cc(Nc3ccc(N4CCOCC4=O)cn3)c21`, the Ki was less than 0.01 µM.

With `CCNC(=O)c1ccc(Nc2cc(-c3c(F)cccc3Cl)nc3c2C(=O)NC3)nc1`, the inhibitory constant (Ki) is less than 0.01 µM.

Turning to `CC1(c2ccc(Nc3nc(-c4c(F)cccc4F)nc4c3C(=O)NC4)cc2)COC1`, the Ki was less than 0.01 µM.

Consider `CC1CC(O)CC(C)N1c1ccc(Nc2cc(-c3c(F)cccc3F)nc3c2C(=O)NC3)nc1` (stereo not drawn), for which the Ki was less than 0.01 µM.

On to `CC1(C)CCCC(=O)N1c1ccc(Nc2cc(-c3c(F)cccc3F)nc3c2C(=O)NC3)nc1`, for which the inhibition constant Ki is less than 0.01 µM.

Consider `O=C1NCc2nc(-c3c(F)cccc3F)cc(Nc3ccc(N4CC(F)(F)C4)cn3)c21`, for which the Ki was less than 0.01 µM.

For the compound `O=C1NCc2nc(-c3c(F)cccc3F)cc(Nc3ccc(F)cn3)c21`, the Ki was less than 0.01 µM.

On to `O=C1NCc2nc(-c3c(F)cccc3F)cc(Nc3ccc(N4CCCC(O)C4)cn3)c21` (stereo not drawn), for which the Ki is less than 0.01 µM.

As for `O=C1NCc2nc(-c3c(F)cccc3F)cc(Nc3ccc(C4(O)CCOCC4)cn3)c21`, the inhibition constant (Ki) was less than 0.01 µM.

Turning to `CC1(C)CCC(=O)N1c1ccc(Nc2cc(-c3c(F)cccc3F)nc3c2C(=O)NC3)nc1`, the inhibitory constant (Ki) was less than 0.01 µM.

As for `CC[C@@]1(c2ccc(Nc3nc(-c4c(F)cccc4F)nc4c3C(=O)NC4)cc2)CCNC1=O`, the inhibition constant (Ki) was less than 0.01 µM.

In the case of `O=C1NCc2nc(-c3c(F)cccc3F)cc(Nc3ccc(C4=CCOCC4)cn3)c21`, the Ki was less than 0.01 µM.

In the case of `O=C1NCc2nc(-c3c(F)cccc3F)c(F)c(Nc3ccc(N4CCOCC4)cn3)c21`, the Ki is less than 0.01 µM.

As to `O=C1NCc2nc(-c3c(F)cccc3F)cc(Nc3ccc(N4CCN(CC(F)F)CC4)cn3)c21`, the Ki was less than 0.01 µM.

With `CC[C@]1(c2ccc(Nc3nc(-c4c(F)cccc4F)nc4c3C(=O)NC4)cc2)CCNC1=O`, the Ki is less than 0.01 µM.

Regarding `O=C1NCc2nc(-c3c(F)cccc3F)cc(Nc3ccc(N4CCC[C@H](O)C4)cn3)c21`, the Ki was less than 0.01 µM.

Consider `CC1COCCN1c1ccc(Nc2cc(-c3c(F)cccc3F)nc3c2C(=O)NC3)nc1` (stereo not drawn), for which the Ki was less than 0.01 µM.

In the case of `O=C1NCc2nc(-c3c(F)cccc3F)cc(Nc3ccc(N4CCC5(CC5)C4)cn3)c21`, the inhibition constant Ki was less than 0.01 µM.

With `COCCNC(=O)c1ccc(Nc2cc(-c3c(F)cccc3F)nc3c2C(=O)NC3)nc1`, the inhibitory constant (Ki) was less than 0.01 µM.

Take `CCNC(=O)c1ccc(Nc2cc(-c3c(F)cccc3F)nc3c2C(=O)NC3)cn1`: the Ki was less than 0.01 µM.

Turning to `CN(c1ccc(Nc2cc(-c3c(F)cccc3F)nc3c2C(=O)NC3)nc1)C(C)(C)C`, the Ki is less than 0.01 µM.

On to `CC1(O)CCN(C(=O)c2ccc(Nc3cc(-c4c(F)cccc4F)nc4c3C(=O)NC4)cc2)CC1`, for which the Ki is less than 0.01 µM.

Take `CC(C)Oc1ccc(Nc2nc(-c3c(F)cccc3F)nc3c2C(=O)NC3)cc1`: the Ki was less than 0.01 µM.

As to `C[C@@H]1CCC[C@H](C)N1c1ccc(Nc2cc(-c3c(F)cccc3F)nc3c2C(=O)NC3)nc1`, the Ki is less than 0.01 µM.

`CC1(C)OCCN(c2ccc(Nc3cc(-c4c(F)cccc4F)nc4c3C(=O)NC4)nc2)C1=O`: the Ki is less than 0.01 µM.

Take `CCNC(=O)c1cnc(Nc2cc(-c3c(F)cccc3F)nc3c2C(=O)NC3)cc1F`: the inhibition constant (Ki) is less than 0.01 µM.

As to `CC1(C)CN(c2ccc(Nc3cc(-c4c(F)cccc4F)nc4c3C(=O)NC4)nc2)CC[C@@H]1O`, the Ki is less than 0.01 µM.

With `CCN(CC)C(=O)c1ccc(Nc2cc(-c3c(F)cccc3F)nc3c2C(=O)NC3)cc1`, the Ki was less than 0.01 µM.

As to `CCNC(=O)Cc1ncc(Nc2nc(-c3c(F)cccc3F)nc3c2C(=O)NC3)cn1`, the Ki was more than 1 µM.

Turning to `O=C1NCc2nc(-c3c(F)cccc3F)cc(Nc3ccc(NS(=O)(=O)C(F)F)cn3)c21`, the Ki was less than 0.01 µM.

For `CCNC(=O)c1ccc(Nc2nc(-c3c(F)cccc3F)nc3c2C(=O)NC3)cc1`, the Ki is less than 0.01 µM.

For `O=C1NCc2nc(-c3c(F)cccc3F)cc(Nc3ccc(N4CCOCC4)nc3)c21`, the inhibitory constant (Ki) was less than 0.01 µM.

With `CC1(C)CCN(c2ccc(Nc3cc(-c4c(F)cccc4F)nc4c3C(=O)NC4)nc2)CC1`, the inhibition constant Ki was less than 0.01 µM.

In the case of `CC(C)(C)Nc1ccc(Nc2cc(-c3c(F)cccc3F)nc3c2C(=O)NC3)nc1`, the inhibition constant (Ki) was less than 0.01 µM.

On to `COc1ccc(Nc2cc(-c3c(F)cccc3F)nc3c2C(=O)N[C@@H]3C)nc1`, for which the Ki was less than 0.01 µM.

In the case of `C[C@@H]1CCC[C@@H](C)N1c1ccc(Nc2cc(-c3c(F)cccc3F)nc3c2C(=O)NC3)nc1`, the inhibition constant Ki is less than 0.01 µM.

`O=C1NCc2nc(-c3c(F)cccc3F)cc(Nc3ccc(F)cc3)c21`: the Ki is less than 0.01 µM.

For the compound `O=C(Cc1ccc(Nc2nc(-c3c(F)cccc3F)nc3c2C(=O)NC3)cc1)NC1CNC1`, the inhibition constant (Ki) is less than 0.01 µM.

`O=C1NCc2nc(-c3c(F)cccc3F)cc(Nc3ccc(N4CCN(CCC(F)(F)F)CC4)cn3)c21`: the Ki is less than 0.01 µM.

Turning to `COc1ccc(Nc2cc(-c3c(F)cccc3C#N)nc3c2C(=O)NC3)nc1`, the inhibition constant Ki was less than 0.01 µM.

Take `CC(C)N1CCN(c2ccc(Nc3cc(-c4c(F)cccc4F)nc4c3C(=O)NC4)nc2)CC1`: the Ki is less than 0.01 µM.

Take `CC(C)N1CCN(C(=O)c2ccc(Nc3cc(-c4c(F)cccc4F)nc4c3C(=O)NC4)cc2)CC1`: the Ki is less than 0.01 µM.

`COC(=O)C(C)c1ccc(Nc2nc(-c3c(F)cccc3F)nc3c2C(=O)NC3)cc1` (stereo not drawn): the Ki was less than 0.01 µM.

`CC1(O)CN(c2ccc(Nc3cc(-c4c(F)cccc4F)nc4c3C(=O)NC4)nc2)C1`: the inhibition constant Ki was less than 0.01 µM.

On to `Cc1ccc(Nc2nc(-c3c(F)cccc3F)nc3c2C(=O)NC3)cc1`, for which the Ki was less than 0.01 µM.

On to `C[C@@H]1COCCN1c1ccc(Nc2cc(-c3c(F)cccc3F)nc3c2C(=O)NC3)nc1`, for which the inhibition constant (Ki) is less than 0.01 µM.

On to `C[C@H]1COC[C@H](C)N1c1ccc(Nc2cc(-c3c(F)cccc3F)nc3c2C(=O)NC3)nc1`, for which the inhibition constant (Ki) was less than 0.01 µM.

As to `N#Cc1cccc(F)c1-c1cc(Nc2ccc(C(=O)N3CCOCC3)cc2)c2c(n1)CNC2=O`, the inhibitory constant (Ki) was less than 0.01 µM.

Regarding `CC(C)N1CCN(c2ccc(Nc3cc(-c4c(F)cccc4F)nc4c3C(=O)NC4)nc2)C(=O)C1`, the Ki is less than 0.01 µM.

Regarding `O=C1NCc2nc(-c3c(F)cccc3F)cc(Nc3ccc(C(=O)N4CCC(F)(F)CC4)cc3)c21`, the inhibition constant (Ki) is less than 0.01 µM.

In the case of `CN1CCN(C)[C@](C)(c2ccc(Nc3nc(-c4c(F)cccc4F)nc4c3C(=O)NC4)cc2)C1=O`, the Ki is less than 0.01 µM.

Consider `C[C@@H]1COC[C@@H](C)N1C(=O)c1ccc(Nc2cc(-c3c(F)cccc3F)nc3c2C(=O)NC3)cc1`, for which the inhibition constant (Ki) is less than 0.01 µM.

`O=C1NCc2nc(-c3c(F)cccc3F)cc(Nc3ccc(N4C5COCC4C5)cn3)c21`: the inhibitory constant (Ki) was less than 0.01 µM.

For the compound `O=C1NCc2nc(-c3c(F)cccc3F)cc(Nc3ccc(C(=O)N4CCCCC4)cc3)c21`, the Ki was less than 0.01 µM.

Regarding `O=C1NCc2nc(-c3c(F)cccc3F)cc(Nc3ccc(N4CCCOCC4)cn3)c21`, the inhibitory constant (Ki) is less than 0.01 µM.

For `O=C1NCc2nc(-c3c(F)cccc3F)cc(Nc3ccc(N4CCCC4)cn3)c21`, the Ki was less than 0.01 µM.
